The NIST ThermoML archive (doi:10.1016/j.jct.2014.07.004)

Conditions: Liquid, Closed cell (Static) method

CC1COC(=O)O1 (stereo not given) [4-methyl-1,3-dioxolan-2-one]
Conditions	vapor or sublimation pressure [kPa]
327.12 K	0.057
331.22 K	0.078
338.15 K	0.123
343.15 K	0.185
348.15 K	0.221
353.15 K	0.287

CCOC(=O)OCC [diethyl carbonate]
Conditions	vapor or sublimation pressure [kPa]
277.96 K	0.401
282.06 K	0.515
286.15 K	0.666
288.15 K	0.797
293.15 K	1.031
298.15 K	1.414
303.15 K	1.844
306.64 K	2.347
310.74 K	3.012
318.15 K	4.582
323.15 K	6.172
328.15 K	7.162
333.15 K	9.088
338.15 K	11.56
343.15 K	13.78
348.15 K	16.09
353.15 K	20.83

COC(=O)OC [dimethyl carbonate]
Conditions	vapor or sublimation pressure [kPa]
277.96 K	2.298
282.06 K	3.121
286.15 K	4.019
290.25 K	4.863
294.35 K	6.311
298.15 K	6.982
302.54 K	9.72
306.64 K	11.7
310.74 K	14.02
318.15 K	19.82
323.15 K	23.07

CCOC(=O)OC [ethyl methyl carbonate]
Conditions	vapor or sublimation pressure [kPa]
277.96 K	0.958
282.06 K	1.285
283.15 K	1.516
288.15 K	2.008
293.15 K	2.439
298.15 K	3.658
303.15 K	4.534
308.15 K	5.801
310.74 K	6.739
314.83 K	7.885
323.15 K	12.28
328.15 K	15.26
333.15 K	18.28

O=C1OCCO1 [ethylene carbonate]
Conditions	vapor or sublimation pressure [kPa]
333.15 K	0.045
338.15 K	0.066
343.15 K	0.087
348.15 K	0.124
353.15 K	0.175

O [water]
Conditions	vapor or sublimation pressure [kPa]
277.96 K	0.961
282.06 K	1.243
286.15 K	1.442
290.25 K	1.947
294.35 K	2.537
298.44 K	3.288
302.54 K	4.068
306.64 K	5.035
310.74 K	7.056
314.83 K	8.582
318.93 K	9.702
323.03 K	11.46
327.12 K	15.18
